These results are taken from patent US20260232740A1, “COMBINATIONS COMPRISING VITAMIN B2 AND LACTOBACILLUS RHAMNOSUS” (DSM IP Assets B.V., priority 2022, published 2026).

Test [1] concerns Bifidobacteriaceae. The experiment in a line: Long-term SHIME fermentation (colon model), 16S rRNA gene sequencing: relative abundance of Bifidobacteriaceae in mucus of transverse colon. The arrangement: species or system human. To be noted: relative abundance (%), end of three-week treatment vs end of control period (n=3), probiotic 1*1010 CFU/reactor, vitamin B2 10 mg/day, p<0.05. The source says:
(§1) The typical reactor setup of the SHIMER, representing the gastrointestinal tract of the adult human, was described by Molly et al. (1993) Applied Microbiology and Biotechnology 39 (2): 254-258. Inoculum preparation, retention time, pH, temperature settings and reactor feed composition were previously described by Possemiers et al. (2004) FEMS Microbiol Ecol. 49 (3): 495-507. Compared to the typical setup of the SHIME, the long-term SHIME experiment used for this example included some adaptations. In one reactor, at first, the conditions of the stomach were simulated, before being changed by the computer to conditions simulating the small intestine. […]
(§2) Samples for quantitative 16S-targeted Illumina sequencing were collected 3×/week during the last week of the control and treatment period. […] The obtained high-resolution proportional phylogenetic information (i.e., proportional abundances (%)) was combined with an accurate quantification of total bacterial cells via flow cytometry to obtain quantitative data at phylum, family, and species level. […] Samples were analyzed on a BD Facsverse (BDBiosciences, Erembodegem, Belgium) using the high-flow-rate setting and bacteria were separated from medium debris and signal noise by applying a threshold level of 200 on the SYTO channel. […]

Test [2] deals with Bifidobacterium adolescentis. Briefly: Long-term SHIME fermentation (colon model), 16S rRNA gene sequencing and flow cytometry: levels of Bifidobacterium adolescentis in lumen of transverse colon. Set-up: species or system human. To be noted: average levels (log cells/mL), end of three-week treatment vs end of control period (n=3), probiotic 1*1010 CFU/reactor, vitamin B2 10 mg/day, p<0.05.
Excerpt: as §1, §2
Background: A flow cytometer gives signals particle by particle.

Take Lactobacillus rhamnosus GG: the “abundance of Bifidobacteriaceae compared to the control” value in test [1] is “did not significantly change”. Further, in test [2], the “abundance of Bifidobacterium adolescentis compared to the control” value was “did not significantly change”.
